Results from the supplement of paper PMC8967900.

Legend:
Assay in all cases: selective drug sensitivity score (sDSS, relative to normal bone marrow) (sDSS (score)); higher = more potent and effective on the cell line relative to normal bone marrow cells
Conditions in all cases: 72 h
380 = system: 380
DND-41 = system: DND-41
RPMI-8402 = system: RPMI-8402
KASUMI-9 = system: KASUMI-9
COG-LL-332h = system: COG-LL-332h
MHH-CALL-2 = system: MHH-CALL-2
COG-LL-394h = system: COG-LL-394h
MOLT-16 = system: MOLT-16
HPB-ALL = system: HPB-ALL
TANOUE = system: TANOUE
MHH-CALL-3 = system: MHH-CALL-3
HAL-01 = system: HAL-01
KASUMI-10 = system: KASUMI-10
PEER = system: PEER
P30-OHKUBO = system: P30-OHKUBO
COG-LL-317 = system: COG-LL-317
COG-LL-402h = system: COG-LL-402h
LC4-1 = system: LC4-1
TMD5 = system: TMD5
ALL-PO = system: ALL-PO
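Further: ALL cell lines in 384-well plates, five doses spanning 10,000-fold, each plate scaled between vehicle and 100 µmol/L benzalkonium chloride controls, sDSS an adapted area-under-curve metric.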

SMILES	selective drug sensitivity score 380	selective drug sensitivity score (DND-41)	selective drug sensitivity score (RPMI-8402)	selective drug sensitivity score (KASUMI-9)	selective drug sensitivity score (COG-LL-332h)	selective drug sensitivity score (MHH-CALL-2)	selective drug sensitivity score (COG-LL-394h)	selective drug sensitivity score (MOLT-16)	selective drug sensitivity score (HPB-ALL)	selective drug sensitivity score (TANOUE)	selective drug sensitivity score (MHH-CALL-3)	selective drug sensitivity score (HAL-01)	selective drug sensitivity score (KASUMI-10)	selective drug sensitivity score (PEER)	selective drug sensitivity score (P30-OHKUBO)	selective drug sensitivity score (COG-LL-317)	selective drug sensitivity score (COG-LL-402h)	selective drug sensitivity score (LC4-1)	selective drug sensitivity score (TMD5)	selective drug sensitivity score (ALL-PO)
CCn1cc(-c2ccnc3[nH]c(-c4cccc(CN(C)C)c4)cc23)c(-c2ccc(NC(=O)N(C)C)cc2)n1 (top concentration 1000 nM)	19	-0.84	8.86	20.3	19.3	6.66	0.36	14.9	-0.44	-1.84	2.06	1.46	9.86	20.4	26.6	18.7	17.8	23.4	13.5	13.2
CC(C)(C)C[C@@H]1N[C@@H](C(=O)N[C@H]2CC[C@H](O)CC2)[C@H](c2cccc(Cl)c2F)[C@]12C(=O)Nc1cc(Cl)ccc12 (top concentration 10000 nM)	14.3	-3.84	-3.34	16.4	8.66	13.2	6.46	12.5	-3.44	-7.84	16.9	12.2	12.5	-2.04	12.4	19.9	13.4	12.4	9.16	-1.84
Cc1c(Cn2c(C)nc3c(C(=O)O)cc(N4CCOCC4)cc32)cccc1C(F)(F)F (top concentration 10000 nM)	-0.02	1.78	-0.02	1.08	0.98	0.58	-0.02	-0.02	-0.02	-0.02	-0.02	9.28	-0.02	-0.02	2.38	2.28	3.68	-0.02	-0.02	0.08
Nc1ncnc2c1c(COc1cccc(Cl)c1)nn2C1CCOCC1 (top concentration 10000 nM)	5.46	-0.64	0.46	1.06	-0.14	1.76	-0.64	-0.64	1.26	1.16	0.66	4.06	-0.64	-0.64	0.56	-0.64	1.56	0.26	-0.64	0.66
Cn1cc(C[C@@H](N)C(=O)O)c2ccccc21 [1-methyl-D-tryptophan] (top concentration 5000 nM)	-0.02	-0.62	-0.62	-0.62	-0.62	2.28	-0.62	-0.62	-0.62	-0.62	1.48	0.58	-0.62	-0.62	0.58	-0.62	-0.62	-0.62	-0.62	-0.62
COc1cc2c(cc1OCCCN1CCCC1)N=C(N)C21CCC1 [A-366] (top concentration 25000 nM)	-1.84	4.56	4.06	2.36	4.86	-1.14	2.06	3.46	-1.84	-1.84	-1.84	-1.84	1.46	1.46	2.56	3.06	-1.84	-1.24	-1.84	1.76
COCCOc1cnc2ccn([C@H](C)c3nnc4c(F)cc(-c5cnn(C)c5)cn34)c(=O)c2c1 [AMG-337] (top concentration 10000 nM)	3.04	-0.06	-0.06	0.14	-0.06	7.54	-0.06	-0.06	1.54	-0.06	4.94	5.24	-0.06	-0.06	0.84	-0.06	-0.06	-0.06	-0.06	-0.06
COc1cc(N2CCC(N3CCN(C)CC3)CC2)ccc1Nc1ncnc(Nc2ccccc2S(=O)(=O)C(C)C)n1 [ASP3026] (top concentration 10000 nM)	-2.74	0.56	0.56	-0.84	-0.04	-0.84	2.36	-1.54	1.26	-2.64	-4.04	1.76	2.86	-0.24	-1.04	-1.44	1.76	-0.44	-1.84	5.36
CN[C@@H](C)C(=O)N[C@H]1CN(C(=O)CC(C)C)CC[C@H]2CC[C@@H](C(=O)NC(c3ccccc3)c3ccccc3)N2C1=O [AT-406] (top concentration 10000 nM)	-1.26	-1.26	-0.96	-1.26	2.54	2.14	5.84	-1.26	-1.26	-1.26	-1.26	3.04	-1.26	-1.16	-1.06	0.64	-0.86	-1.26	6.54	-1.26
COc1cc2ncnc(Nc3cccc(Cl)c3F)c2cc1OC(=O)N1CCN(C)C[C@H]1C [AZD3759] (top concentration 1000 nM)	-0.04	-0.04	-0.04	-0.04	-0.04	1.56	-0.04	-0.04	-0.04	-0.04	-0.04	-0.04	-0.04	-0.04	-0.04	-0.04	-0.04	-0.04	0.06	1.26
C[C@]12CC[C@H](O)CC1=CC[C@@H]1[C@@H]2CC[C@]2(C)C(c3cccnc3)=CC[C@@H]12 [Abiraterone] (top concentration 5000 nM)	0.58	-0.12	-0.12	-0.12	-0.12	0.88	-0.12	1.28	-0.12	-0.12	-0.12	-0.12	-0.12	-0.12	1.48	-0.12	-0.12	1.18	-0.12	3.48
CC#CC(=O)N1CCC[C@H]1c1nc(-c2ccc(C(=O)Nc3ccccn3)cc2)c2c(N)nccn12 [Acalabrutinib] (top concentration 1000 nM)	9.6	-0.1	-0.1	1.2	-0.1	9	-0.1	-0.1	-0.1	-0.1	0	7.2	1.8	-0.1	1.3	-0.1	-0.1	-0.1	5.9	-0.1
CCc1cc2c(cc1N1CCC(N3CCOCC3)CC1)C(C)(C)c1[nH]c3cc(C#N)ccc3c1C2=O [Alectinib] (top concentration 1000 nM)	0.38	0.08	2.08	0.88	0.18	-0.12	2.58	-0.22	-0.22	-0.22	-0.22	1.28	1.68	0.78	1.68	5.48	1.48	3.18	-0.22	7.28
Oc1ncnc2[nH]ncc12 [Allopurinol] (top concentration 10000 nM)	-0.64	-0.64	-0.64	-0.64	-0.64	-0.64	-0.64	-0.64	6.06	-0.64	-0.64	-0.64	-0.64	-0.64	0.96	-0.64	-0.64	0.06	-0.64	-0.64
COc1cc(NS(C)(=O)=O)ccc1Nc1c2ccccc2nc2ccccc12 [Amsacrine] (top concentration 10000 nM)	23.2	4.16	14.4	16	20.1	10.5	8.26	27.1	2.56	-11.2	23.5	14.1	11	3.16	13	25.8	16.8	15.5	3.86	5.66
O=C1CN2Cc3c(ccc(Cl)c3Cl)N=C2N1 [Anagrelide] (top concentration 10000 nM)	0.1	0	0	0	0	1.5	0	0	0	0	0	0	0	0	0	0	0	0	0	1
N#CC(c1ccnc(OCc2ccc(CN3CCOCC3)cc2)n1)c1nc2ccccc2s1 (stereo not given) [Bentamapimod] (top concentration 10000 nM)	-0.46	3.64	4.94	6.24	2.94	4.94	3.44	4.04	3.34	0.84	-0.46	2.74	-0.46	5.64	5.34	3.34	1.54	2.34	0.74	6.24
CCNC(=O)CCC/C=C\C[C@@H]1[C@@H](/C=C/[C@@H](O)CCc2ccccc2)[C@H](O)C[C@@H]1O [Bimatoprost] (top concentration 5500 nM)	0	5.6	0	0	0	0	0	0	0.5	0	0	0	0	0	0	0	0	0	0	0
COc1cc(C)[nH]c(=O)c1CNC(=O)c1c(C)n([C@H](C)C2CCOCC2)c2ccccc12 [CPI-360] (top concentration 10000 nM)	5.1	0	0	0	0	1.1	0	0	0	0	0	1.3	0	0	1.8	0	0	0	0	0
